Values of other authors in patent publication US5186913A, “Tungsten-188/carrier-free rhenium-188 perrhenic acid generator system” (Martin Marietta Energy Systems, Inc., priority 1991, dated 1993).
Read-outs that look alike come from different tables or passages of the source.

Legend:
[1] = not given; remark: listed apart in the source

[Re] [Re, Rhenium]
distribution coefficient Dv (amount absorbed per liter resin bed/amount per liter solution) (0.1M HNO3): 1×10^3
distribution coefficient Dv (amount absorbed per liter resin bed/amount per liter solution) (6M HNO3): ~ 1

[188Re] [Re-188, Rhenium-188]
energy of gamma photon ([1]; gamma emission): 155 keV
abundance of gamma photon ([1]; gamma photon of 155 keV): about 15%
half-life ([1]; radioactive decay): 0.704 days
average energy of β emission ([1]; β emission): 764 keV

[188W] [W-188, tungsten-188]
t1/2 ([1]; radioactive decay, parent isotope): 69.4 days
